Laboratory results from patent US9475817B2 (BRISTOL-MYERS SQUIBB COMPANY, priority 2012, dated 2016).

Experiments:
CK1ε = CK1ε (Homo sapiens (Human), UniProt P49674); assay: CK1ε kinase assay (Caliper LabChip, fluoresceinated peptide substrate); format: biochemical; settings: 200 pM CK1ε, 50 μM ATP, 1.5 μM peptide substrate, 22 hours room temperature
Method: (§1) CK1ε and CK1δ Kinase Assays
(§2) The kinase assay was performed in V-bottom 384-well plates. […] The reaction was incubated at room temperature for 22 hours and terminated by adding 45 μl of 35 mM EDTA to each sample. […] Compounds were dissolved at 10 mM in dimethylsulfoxide (DMSO) and evaluated at eleven concentrations. IC50 values were derived by non-linear regression analysis.

CK1δ = CK1δ (Homo sapiens (Human), UniProt P48730); assay: CK1δ kinase assay (Caliper LabChip, fluoresceinated peptide substrate); format: biochemical; settings: 200 pM CK1δ, 50 μM ATP, 1.5 μM peptide substrate, 22 hours room temperature
Method: as §1, §2

Sequence of CK1ε (P49674 whole entry): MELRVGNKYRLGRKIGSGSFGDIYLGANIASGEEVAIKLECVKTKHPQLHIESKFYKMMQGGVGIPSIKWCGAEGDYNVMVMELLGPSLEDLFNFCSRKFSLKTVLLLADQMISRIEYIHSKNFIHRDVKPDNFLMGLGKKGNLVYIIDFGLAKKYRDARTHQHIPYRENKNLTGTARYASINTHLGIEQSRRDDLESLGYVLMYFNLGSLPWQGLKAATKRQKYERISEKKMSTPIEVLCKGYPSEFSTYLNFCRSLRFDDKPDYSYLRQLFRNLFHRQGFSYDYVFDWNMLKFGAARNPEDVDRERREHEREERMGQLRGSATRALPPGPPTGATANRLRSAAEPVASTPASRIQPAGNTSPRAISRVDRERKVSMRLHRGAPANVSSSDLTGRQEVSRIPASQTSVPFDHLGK
Sequence of CK1δ (P48730 whole entry): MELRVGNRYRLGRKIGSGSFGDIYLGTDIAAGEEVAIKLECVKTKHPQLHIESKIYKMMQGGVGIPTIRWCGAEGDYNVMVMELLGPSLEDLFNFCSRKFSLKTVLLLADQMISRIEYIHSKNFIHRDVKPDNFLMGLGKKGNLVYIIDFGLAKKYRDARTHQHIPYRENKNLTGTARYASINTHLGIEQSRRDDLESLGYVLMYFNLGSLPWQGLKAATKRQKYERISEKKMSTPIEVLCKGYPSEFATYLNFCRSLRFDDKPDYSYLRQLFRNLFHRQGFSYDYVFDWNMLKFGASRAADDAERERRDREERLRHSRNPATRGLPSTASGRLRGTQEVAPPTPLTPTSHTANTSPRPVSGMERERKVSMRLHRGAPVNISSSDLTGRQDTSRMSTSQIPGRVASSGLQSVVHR

IC50 (CK1ε) [nM] | IC50 (CK1δ) [nM] | SMILES
454 | 30.4 | Cn1cc(-c2ccc3nc(NC(=O)c4cc(-c5ccc(F)cc5)ncn4)cn3n2)c(-c2ccc(F)cc2)n1 [Compound 33, 6-(4-fluorophenyl)-N-(6-(3-(4-fluorophenyl)-1-methyl-1H-pyrazol-4-yl)imidazo[1,2-b]pyridazin-2-yl)pyrimidine-4-carboxamide]
18.7 | 3.6 | Cc1c[nH]nc1C(=O)Nc1cn2nc(-c3cn(C)nc3-c3ccc(F)cc3)ccc2n1 [Compound 34, N-(6-(3-(4-fluorophenyl)-1-methyl-1H-pyrazol-4-yl)imidazo[1,2-b]pyridazin-2-yl)-4-methyl-1H-pyrazol-3-carboxamide]
9.1 | 2.8 | Cn1cc(-c2ccc3nc(NC(=O)c4ccncc4F)cn3n2)c(-c2ccc(F)cc2)n1 [Compound 35, 3-fluoro-N-(6-(3-(4-fluorophenyl)-1-methyl-1H-pyrazol-4-yl)imidazo[1,2-b]pyridazin-2-yl)isonicotinamide]
13.7 | 7.3 | Cn1cc(-c2ccc3nc(NC(=O)c4ncccc4Cl)cn3n2)c(-c2ccc(F)cc2)n1 [Compound 36, 3-chloro-N-(6-(3-(4-fluorophenyl)-1-methyl-1H-pyrazol-4-yl)imidazo[1,2-b]pyridazin-2-yl)picolinamide]
116 | 30.5 | Cn1cc(-c2ccc3nc(NC(=O)c4nccs4)cn3n2)c(-c2ccc(F)cc2)n1 [Compound 37, N-(6-(3-(4-fluorophenyl)-1-methyl-1H-pyrazol-4-yl)imidazo[1,2-b]pyridazin-2-yl)thiazole-2-carboxamide]
43.4 | 10.7 | Cn1cc(-c2ccc3nc(NC(=O)c4ccncn4)cn3n2)c(-c2ccc(F)cc2)n1 [Compound 38, N-(6-(3-(4-fluorophenyl)-1-methyl-1H-pyrazol-4-yl)imidazo[1,2-b]pyridazin-2-yl)pyrimidine-4-carboxamide]
18 | 5.4 | Cn1cc(-c2ccc3nc(NC(=O)C4CCOCC4)cn3n2)c(-c2ccc(F)cc2)n1 [Compound 40, N-(6-(3-(4-fluorophenyl)-1-methyl-1H-pyrazol-4-yl)imidazo[1,2-b]pyridazin-2-yl)tetrahydro-2H-pyran-4-carboxamide]
11.5 | 4 | Cn1cc(-c2ccc3nc(NC(=O)c4ccc(CO)cc4F)cn3n2)c(-c2ccc(F)cc2)n1 [Compound 41, 2-fluoro-N-(6-(3-(4-fluorophenyl)-1-methyl-1H-pyrazol-4-yl)imidazo[1,2-b]pyridazin-2-yl)-4-(hydroxymethyl)benzamide]
13.7 | 2.3 | Cn1cc(-c2ccc3nc(NC(=O)c4ccc(Br)cc4F)cn3n2)c(-c2ccc(F)cc2)n1 [Compound 42, 4-bromo-2-fluoro-N-(6-(3-(4-fluorophenyl)-1-methyl-1H-pyrazol-4-yl)imidazo[1,2-b]pyridazin-2-yl)benzamide]
15.8 | 4.8 | Cn1cc(-c2ccc3nc(NC(=O)c4cc(F)cc(F)c4)cn3n2)c(-c2ccc(F)cc2)n1 [Compound 43, 3,5-difluoro-N-(6-(3-(4-fluorophenyl)-1-methyl-1H-pyrazol-4-yl)imidazo[1,2-b]pyridazin-2-yl)benzamide]
21.2 | 5.6 | COc1ccc(F)c(C(=O)Nc2cn3nc(-c4cn(C)nc4-c4ccc(F)cc4)ccc3n2)c1 [Compound 44, 2-fluoro-N-(6-(3-(4-fluorophenyl)-1-methyl-1H-pyrazol-4-yl)imidazo[1,2-b]pyridazin-2-yl)-5-methoxybenzamide]
6.8 | 1.9 | COc1cc(F)cc(C(=O)Nc2cn3nc(-c4cn(C)nc4-c4ccc(F)cc4)ccc3n2)c1 [Compound 45, 3-fluoro-N-(6-(3-(4-fluorophenyl)-1-methyl-1H-pyrazol-4-yl)imidazo[1,2-b]pyridazin-2-yl)-5-methoxybenzamide]
19.9 | 5.2 | Cn1cc(-c2ccc3nc(NC(=O)c4cc(Cl)ccc4F)cn3n2)c(-c2ccc(F)cc2)n1 [Compound 47, 5-chloro-2-fluoro-N-(6-(3-(4-fluorophenyl)-1-methyl-1H-pyrazol-4-yl)imidazo[1,2-b]pyridazin-2-yl)benzamide]
23.4 | 5.7 | Cn1cc(-c2ccc3nc(NC(=O)c4ccc(C#N)c(F)c4)cn3n2)c(-c2ccc(F)cc2)n1 [Compound 48, 4-cyano-3-fluoro-N-(6-(3-(4-fluorophenyl)-1-methyl-1H-pyrazol-4-yl)imidazo[1,2-b]pyridazin-2-yl)benzamide]
13.6 | 6.1 | COc1cc(C(=O)Nc2cn3nc(-c4cn(C)nc4-c4ccc(F)cc4)ccc3n2)ccn1 [Compound 49, N-(6-(3-(4-fluorophenyl)-1-methyl-1H-pyrazol-4-yl)imidazo[1,2-b]pyridazin-2-yl)-2-methoxyisonicotinamide]
22.9 | 6.3 | Cn1cc(-c2ccc3nc(NC(=O)c4cc(F)ccc4F)cn3n2)c(-c2ccc(F)cc2)n1 [Compound 51, 2,5-difluoro-N-(6-(3-(4-fluorophenyl)-1-methyl-1H-pyrazol-4-yl)imidazo[1,2-b]pyridazin-2-yl)benzamide]
17.8 | 7.6 | Cc1cc(C(=O)Nc2cn3nc(-c4cn(C)nc4-c4ccc(F)cc4)ccc3n2)ccn1 [Compound 52, N-(6-(3-(4-fluorophenyl)-1-methyl-1H-pyrazol-4-yl)imidazo[1,2-b]pyridazin-2-yl)-2-methylisonicotinamide]
21.4 | 5.8 | Cn1cc(-c2ccc3nc(NC(=O)c4ccc(C#N)nc4)cn3n2)c(-c2ccc(F)cc2)n1 [Compound 53, 6-cyano-N-(6-(3-(4-fluorophenyl)-1-methyl-1H-pyrazol-4-yl)imidazo[1,2-b]pyridazin-2-yl)nicotinamide]
14 | 4.5 | Cn1cc(-c2ccc3nc(NC(=O)c4ccnc(F)c4)cn3n2)c(-c2ccc(F)cc2)n1 [Compound 54, 2-fluoro-N-(6-(3-(4-fluorophenyl)-1-methyl-1H-pyrazol-4-yl)imidazo[1,2-b]pyridazin-2-yl)isonicotinamide]
12.1 | 4.1 | Cn1cc(-c2ccc3nc(NC(=O)c4cc(C#N)ccc4F)cn3n2)c(-c2ccc(F)cc2)n1 [Compound 55, 5-cyano-2-fluoro-N-(6-(3-(4-fluorophenyl)-1-methyl-1H-pyrazol-4-yl)imidazo[1,2-b]pyridazin-2-yl)benzamide]
44.9 | 14.4 | Cn1cc(-c2ccc3nc(NC(=O)c4ccc(F)c(C#N)c4)cn3n2)c(-c2ccc(F)cc2)n1 [Compound 56, 3-cyano-4-fluoro-N-(6-(3-(4-fluorophenyl)-1-methyl-1H-pyrazol-4-yl)imidazo[1,2-b]pyridazin-2-yl)benzamide]
22.3 | 8.9 | Cn1cc(-c2ccc3nc(NC(=O)c4cc(F)cc(C#N)c4)cn3n2)c(-c2ccc(F)cc2)n1 [Compound 57, 3-cyano-5-fluoro-N-(6-(3-(4-fluorophenyl)-1-methyl-1H-pyrazol-4-yl)imidazo[1,2-b]pyridazin-2-yl)benzamide]
40.9 | 6.9 | Cn1cc(-c2ccc3nc(NC(=O)c4ccc(OC(F)F)cc4F)cn3n2)c(-c2ccc(F)cc2)n1 [Compound 58, 4-(difluoromethoxy)-2-fluoro-N-(6-(3-(4-fluorophenyl)-1-methyl-1H-pyrazol-4-yl)imidazo[1,2-b]pyridazin-2-yl)benzamide]
22.1 | 7.8 | COc1cccc(C(=O)Nc2cn3nc(-c4cn(C)nc4-c4ccc(F)cc4)ccc3n2)c1F [Compound 59, 2-fluoro-N-(6-(3-(4-fluorophenyl)-1-methyl-1H-pyrazol-4-yl)imidazo[1,2-b]pyridazin-2-yl)-3-methoxybenzamide]
13.1 | 5.5 | Cn1cc(-c2ccc3nc(NC(=O)c4cnn(C)c4Cl)cn3n2)c(-c2ccc(F)cc2)n1 [Compound 60, 5-chloro-N-(6-(3-(4-fluorophenyl)-1-methyl-1H-pyrazol-4-yl)imidazo[1,2-b]pyridazin-2-yl)-1-methyl-1H-pyrazole-4-carboxamide]
18.7 | 5.7 | COc1c(F)cc(C(=O)Nc2cn3nc(-c4cn(C)nc4-c4ccc(F)cc4)ccc3n2)cc1F [Compound 61, 3,5-difluoro-N-(6-(3-(4-fluorophenyl)-1-methyl-1H-pyrazol-4-yl)imidazo[1,2-b]pyridazin-2-yl)-4-methoxybenzamide]
28.1 | 7.2 | Cn1cc(-c2ccc3nc(NC(=O)c4ccc(F)cc4)cn3n2)c(-c2ccc(F)cc2)n1 [Compound 62, 4-fluoro-N-(6-(3-(4-fluorophenyl)-1-methyl-1H-pyrazol-4-yl)imidazo[1,2-b]pyridazin-2-yl)benzamide]
34.8 | 8 | Cn1cc(-c2ccc3nc(NC(=O)c4cnccc4C(F)(F)F)cn3n2)c(-c2ccc(F)cc2)n1 [Compound 63, N-(6-(3-(4-fluorophenyl)-1-methyl-1H-pyrazol-4-yl)imidazo[1,2-b]pyridazin-2-yl)-4-(trifluoromethyl) nicotinamide]
38.5 | 7.1 | COc1ccncc1C(=O)Nc1cn2nc(-c3cn(C)nc3-c3ccc(F)cc3)ccc2n1 [Compound 64, N-(6-(3-(4-fluorophenyl)-1-methyl-1H-pyrazol-4-yl)imidazo[1,2-b]pyridazin-2-yl)-4-methoxynicotinamide]
158 | 24.7 | Cn1cc(-c2ccc3nc(NC(=O)c4cccc(C(F)(F)F)n4)cn3n2)c(-c2ccc(F)cc2)n1 [Compound 65, N-(6-(3-(4-fluorophenyl)-1-methyl-1H-pyrazol-4-yl)imidazo[1,2-b]pyridazin-2-yl)-6-(trifluoromethyl) picolinamide]
